Data from patent US20120129897A1, “BIS HETEROARYL INHIBITORS OF PRO-MATRIX METALLOPROTEINASE ACTIVATION” (priority 2010, published 2012).
Counter-ions that a name gives are not always drawn.

Tests used:
[1] = molecular target: T1, proMMP9(20-445;ΔFnII) (SEQ ID NO:6) (Homo sapiens, UniProt P14780, DEL216-390); experiment: ThermoFluor binding assay with proMMP9(20-445;ΔFnII)
T1 construct: start methionine (N); made in house; host or cells: E. coli BL21(DE3) RIL
T1 sequence (P14780 with tags, fused parts or gaps DEL216-390): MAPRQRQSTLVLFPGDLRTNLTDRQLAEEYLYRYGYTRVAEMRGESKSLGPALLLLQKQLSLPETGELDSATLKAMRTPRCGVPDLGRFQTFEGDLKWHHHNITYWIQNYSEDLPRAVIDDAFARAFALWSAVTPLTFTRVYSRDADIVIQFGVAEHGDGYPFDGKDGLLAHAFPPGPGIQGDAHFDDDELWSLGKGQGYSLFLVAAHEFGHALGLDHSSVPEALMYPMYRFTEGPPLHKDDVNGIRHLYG
Experimental: (§1) The ThermoFluor® (TF) assay is a 384-well plate-based binding assay that measures thermal stability of proteins (Biomol Screen 2001, 6, 429-40; Biochemistry 2005, 44, 5258-66). The experiments were carried out using instruments available from Johnson & Johnson Pharmaceutical Research & Development, LLC. TF dye used in all experiments was […] (1,8-ANS) (Invitrogen: A-47).
(§2) Compounds were arranged in a pre-dispensed plate (Greiner Bio-one: 781280), wherein compounds were serially diluted in 100% DMSO across 11 columns within a series. Columns 12 and 24 were used as DMSO reference and contained no compound. For multiple compound concentration-response experiments, the compound aliquots ([…]) were robotically predispensed directly into black 384-well polypropylene PCR microplates (Abgene: TF-0384/k) using a Cartesian Hummingbird liquid handler (DigiLab, Holliston, Mass.). Following compound dispense, protein and dye solutions were added to achieve the final assay volume of 3 μL. The assay solutions were overlayed with 1 μL of silicone oil (Fluka, type DC 200: 85411) to prevent evaporation.
(§3) Assay plates were robotically loaded onto a thermostatically controlled PCR-type thermal block and then heated from 40 to 90° C. at a ramp-rate of 1° C./min for all experiments. Fluorescence was measured by continuous illumination with UV light (Hamamatsu LC6) supplied via fiber optics and filtered through a band-pass filter (380-400 nm; >60D cutoff). Fluorescence emission of the entire 384-well plate was detected by measuring light intensity using a CCD camera (Sensys, Roper Scientific) filtered to detect 500±25 nm, resulting in simultaneous and independent readings of all 384 wells. A single image with 20-sec exposure time was collected at each temperature, and the sum of the pixel intensity in a given area of the assay plate was recorded vs temperature and fit to standard equations to yield the Tm (J Biomol Screen 2001, 6, 429-40).
(§4) Thermodynamic parameters necessary for fitting compound binding for each proMMP were estimated by differential scanning calorimetry (DSC) and from ThermoFluor® data. The heat capacity of unfolding for each protein was estimated from the molecular weight and from ThermoFluor® dosing data.
The protein sample preparations included a desalting buffer exchange step via a PD-10 gravity column (GE Healthcare). The desalting buffer exchange was performed prior to diluting the protein to the final assay concentration of 2.8 μM proMMP9(20-445;ΔFnII) (SEQ ID NO:6). The concentration of proMMP9(20-445;ΔFnII) (SEQ ID NO:6) was determined spectrophotometrically based on a calculated extinction coefficient of ε280=39880 M^−1cm^−1, a calculated molecular weight of 28.2 kDa, and calculated pI of 5.5. ThermoFluor® reference conditions were define as follows: 80 μg/mL (2.8 μM) proMMP9(20-445;ΔFnII) (SEQ ID NO:6), 50 μM 1,8-ANS, pH 7.0 Buffer (50 mM HEPES pH 7.0, 100 mM NaCl, 0.001% Tween-20, 2.5 mM MgCl2, 300 μM CaCl2). The thermodynamic parameters for proMMP9(20-445;ΔFnII) (SEQ ID NO:6) are as follows: Tm (° C.)=72 (+/−0.1), ΔUH(Tm) (cal mol^−1)=160000(+/−5000), ΔUS(Tm) (cal mol^−1 K^−1)=434, ΔUCp ([…])=2400.

[2] = molecular target: T2, proMMP13(1-268) (SEQ ID NO:7) (Homo sapiens, UniProt P45452); experiment: ThermoFluor binding assay with proMMP13(1-268); parameters: 6x-histidine (C); made in house
Experimental: as §1, §2, §3, §4
The proMMP13(1-268) (SEQ ID NO:7) protein sample preparations included a desalting buffer exchange step via a PD-10 gravity column (GE Healthcare). The desalting buffer exchange was performed prior to diluting the protein to the final assay concentration of 3.5 μM. The concentration of proMMP13(1-268) (SEQ ID NO:7) was estimated spectrophotometrically based on a calculated extinction coefficient of ε280=37000 M^−1cm^−1, a calculated molecular weight of 30.8 kDa, and calculated pI of 5.33. ThermoFluor® reference conditions were defined as follows: 100 μg/mL proMMP13(1-268) (SEQ ID NO:7), 25 μM 1,8-ANS, pH 7.0 Buffer (50 mM HEPES pH 7.0, 100 mM NaCl, 0.001% Tween-20, 2.5 mM MgCl2, 300 μM CaCl2). The thermodynamic parameters for proMMP13(1-268) (SEQ ID NO:7) are as follows: Tm (° C.)=67 (+/−0.1), ΔUH(Tm) (cal mol^−1)=107000(+/−5000), ΔUS(Tm) (cal mol^−1 K^−1)=318, ΔUCp (cal mol^−1 K^−1)=2600.

[3] = molecular target: T3, full-length proMMP9(1-707) (SEQ ID NO:1) (Homo sapiens, UniProt P14780, R574P); experiment: proMMP9/MMP3 P126 Activation Assay; assay type: biochemical; settings: 20 nM proMMP9, 20 nM MMP3, 80 min 37° C.
T3 construct: made in house; host or cells: HEK293 (proMMP9, secreted); E. coli (MMP3)
Experimental: The reaction volume was 50 μL. […] Reactivity of residual MMP3 towards P-126 substrate was minimal under these conditions.

[4] = molecular target: T4, proMMP9(67-444;ΔFnII) (SEQ ID NO:5) (Homo sapiens, UniProt P14780, DEL216-390); experiment: ThermoFluor binding assay with proMMP9(67-444;ΔFnII)
T4 construct: start methionine (N); made in house; host or cells: E. coli BL21(DE3) RIL
T4 sequence (P14780 with tags, fused parts or gaps DEL216-390): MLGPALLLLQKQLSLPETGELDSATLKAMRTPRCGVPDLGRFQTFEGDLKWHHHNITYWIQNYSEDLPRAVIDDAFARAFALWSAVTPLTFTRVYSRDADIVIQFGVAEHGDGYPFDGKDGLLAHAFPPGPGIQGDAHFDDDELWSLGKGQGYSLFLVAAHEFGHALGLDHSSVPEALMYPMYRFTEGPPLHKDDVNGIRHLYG
Experimental: as §1, §2, §3, §4
The protein sample preparations had to include a desalting buffer exchange step via a PD-10 gravity column (GE Healthcare). The desalting buffer exchange was performed prior to diluting the protein to the final assay concentration of 3.5 μM proMMP9(67-444;ΔFnII) (SEQ ID NO:5). The concentration of proMMP9(67-444;ΔFnII) (SEQ ID NO:5) was determined spectrophotometrically based on a calculated extinction coefficient of ε280=33900 M^−1cm^−1, a calculated molecular weight of 22.6 kDa, and calculated pI of 5.20. ThermoFluor® reference conditions were defined as follows: 80 μg/mL (3.5 μM) proMMP9(67-444;ΔFnII) (SEQ ID NO:5), 50 μM 1,8-ANS, pH 7.0 Buffer (50 mM HEPES pH 7.0, 100 mM NaCl, 0.001% Tween-20, 2.5 mM MgCl2, 300 μM CaCl2). The thermodynamic parameters for proMMP9(67-444;ΔFnII) (SEQ ID NO:5) are as follows: Tm (° C.)=63 (+/−0.1), ΔUH(Tm) (cal mol^−1)=105000(+/−5000), ΔUS(Tm) (cal mol^−1 K^−1)=[…], ΔUCp (cal mol^−1 K^−1)=2000.

[5] = molecular target: T2, proMMP13(1-268) (SEQ ID NO:7); experiment: ProMMP13/Plasmin P126 Activation Assay; assay type: biochemical; parameters: 6x-histidine (C); made in house; host or cells: HEK293 (transient transfection, secreted); settings: 8 nM proMMP13, 16 nM plasmin, 40 min 37° C.
Experimental: On the day of assay, proMMP13(1-268) (SEQ ID NO:7) purified from HEK293 cells and plasmin were diluted to 160 nM and 320 nM, respectively, in assay buffer. The reaction volume was 50 μL. […] The plate was sealed and incubated for 40 min at 37° C. […] Plasmin was not reactive towards P-126 substrate under these conditions.

T3 sequence (P14780 20-707 R574P): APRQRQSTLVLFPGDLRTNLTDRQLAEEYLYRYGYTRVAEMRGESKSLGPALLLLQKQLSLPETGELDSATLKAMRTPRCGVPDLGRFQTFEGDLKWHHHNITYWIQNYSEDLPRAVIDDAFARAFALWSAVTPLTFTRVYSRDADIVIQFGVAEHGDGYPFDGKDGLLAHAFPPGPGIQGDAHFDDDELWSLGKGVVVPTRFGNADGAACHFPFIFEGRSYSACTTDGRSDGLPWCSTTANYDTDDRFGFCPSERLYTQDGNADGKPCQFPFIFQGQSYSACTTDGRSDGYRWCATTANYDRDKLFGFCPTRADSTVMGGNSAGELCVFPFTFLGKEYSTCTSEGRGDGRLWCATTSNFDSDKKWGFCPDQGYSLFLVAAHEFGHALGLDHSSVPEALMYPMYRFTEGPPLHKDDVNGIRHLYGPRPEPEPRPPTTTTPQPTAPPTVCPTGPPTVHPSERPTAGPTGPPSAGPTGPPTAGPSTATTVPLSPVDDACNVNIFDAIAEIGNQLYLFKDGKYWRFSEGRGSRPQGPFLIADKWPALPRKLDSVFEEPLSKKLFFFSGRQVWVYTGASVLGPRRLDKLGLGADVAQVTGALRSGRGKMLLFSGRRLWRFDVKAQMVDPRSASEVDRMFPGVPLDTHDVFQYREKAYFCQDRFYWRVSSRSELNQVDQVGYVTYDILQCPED

SMILES | Kd [1] [µM] | Kd [2] [µM] | IC50 [3] [µM] | Kd [4] [µM] | IC50 [5] [µM]
Cc1nc(-c2csc(Nc3cc(C(N)=O)ccc3OC(C)C)n2)c(C)[nH]1 [Example 3, 3-[4-(2,5-Dimethyl-1H-imidazol-4-yl)-thiazol-2-ylamino]-4-isopropoxy-benzamide.TFA] | 4.8 | 5.1 | 0.79 | > 95 | 
CCOc1ccc(C#N)cc1Nc1nc(-n2cc(C)nc2C)cs1 [Example 4, 3-[4-(2,4-Dimethyl-imidazol-1-yl)-thiazol-2-ylamino]-4-ethoxy-benzonitrile] | 76 | > 95 | ~5 | 36 | 
CCOc1ccc(C#N)cc1Nc1nc(-c2cnn(C)c2)cs1 [Example 5, 4-Ethoxy-3-[4-(1-methyl-1H-pyrazol-4-yl)-thiazol-2-ylamino]-benzonitrile] | 8.9 | 17 |  | 14 | 
Cc1nc(C)n(C)c1-c1csc(Nc2cc(C(N)=O)ccc2OC(C)C)n1 [Example 7, 4-Isopropoxy-3-[4-(2,3,5-trimethyl-3H-imidazol-4-yl)-thiazol-2-ylamino]-benzamide.TFA] | 5.9 |  | 1.9 | 42 | 
Cc1nc(C)n(C)c1-c1csc(Nc2cc(S(N)(=O)=O)ccc2OC(C)C)n1 [Example 1, 4-Isopropoxy-3-[4-(2,3,5-trimethyl-3H-imidazol-4-yl)-thiazol-2-ylamino]-benzenesulfonamide] | 4.7 | 1.6 | 2.3 | 8.6 | 
Cc1nc(-c2csc(Nc3cc(S(N)(=O)=O)ccc3OC(C)C)n2)c(C)n1C [Example 2, 4-Isopropoxy-3-[4-(1,2,5-trimethyl-1H-imidazol-4-yl)-thiazol-2-ylamino]-benzenesulfonamide.TFA] | 12 | 10 | ~6 | 33.2 | 
Cc1nc(C)c(-c2csc(Nc3cc(C(N)=O)ccc3OC(C)C)n2)o1 [Example 6, 3-[4-(2,4-Dimethyl-oxazol-5-yl)-thiazol-2-ylamino]-4-isopropoxy-benzamide] | 0.17 | 6.1 | 0.27 | 7.2 | 6
